From the supplement of paper PMC12420376 come the findings set out here.

Each structure is given as a SMILES string.

In one assay the test system is OVCAR8. Briefly: drug sensitivity score (DSS2) on cancer cell count; higher = more sensitive; extreme values may be limits of the assay. Particulars: 72 h. In short, it runs like this: (§1)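 Ovarian cancer cells were cultured either alone or directly mixed 1:1 with lung or skin fibroblasts and plated onto 384-well plates acoustically pre-spotted with 528 approved and investigational compounds at 5 concentrations for 72 h of treatment. After fixation, cells were immunostained for CK8/18 with Hoechst and imaged at 10× across 4 fields to count cancer cells. Responses were fitted with 4-parameter logistic curves, and from these fits a drug sensitivity score was derived in Breeze, with screen quality assessed by Z'.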

In another assay the test system is KURAMOCHI
Described as above. Particulars: 72 h. In short, it runs like this: as §1

Setting [1] is: co-cultured fibroblast: BJHTERT.
Setting [2] is: co-cultured fibroblast: none (monoculture).

As to `C=CCn1c(=O)c2cnc(Nc3ccc(N4CCN(C)CC4)cc3)nc2n1-c1cccc(C(C)(C)O)n1` [AZD1775], the drug sensitivity score in the assay with OVCAR8 (setting [1]) is 21 DSS; in the assay with OVCAR8 (co-cultured fibroblast: WI38), 14.9 DSS; in the assay with OVCAR8 (setting [2]), 18.4 DSS; in the assay with KURAMOCHI (setting [1]) it was 15.3 DSS; with KURAMOCHI (co-cultured fibroblast: WI38) it was 12.7 DSS; in the assay with KURAMOCHI (setting [2]) it was 13.2 DSS.
`COc1cc(OC2CCN(C)CC2)ccc1Nc1ncc2c(n1)n(C1CCCC1)c(=O)n2C` [AZ 3146]: the drug sensitivity score with OVCAR8 (setting [1]) turned out to be 8.3 DSS; in the assay with OVCAR8 (co-cultured fibroblast: WI38) it was 9.6 DSS; in the assay on OVCAR8 (setting [2]), 4.3 DSS; with KURAMOCHI (setting [1]), 1.8 DSS; with KURAMOCHI (co-cultured fibroblast: WI38) it was 3.2 DSS; in the assay on KURAMOCHI (setting [2]) it was 1.5 DSS.
For the compound `C[C@@H](Nc1cc(F)cc(F)c1)c1cc(C(=O)N(C)C)cc2c(=O)cc(N3CCOCC3)oc12` [AZD-8186], the drug sensitivity score with OVCAR8 (setting [1]) was found to be 0 DSS; with OVCAR8 (co-cultured fibroblast: WI38) it was 0 DSS; with OVCAR8 (setting [2]), 0.8 DSS; with KURAMOCHI (setting [1]) it was 8.7 DSS; in the assay with KURAMOCHI (co-cultured fibroblast: WI38) it was 3.8 DSS; with KURAMOCHI (setting [2]) it was 6.5 DSS.
On to `Cn1ncnc1[C@H]1c2n[nH]c(=O)c3cc(F)cc(c23)N[C@@H]1c1ccc(F)cc1` [Talazoparib], for which the drug sensitivity score in the assay with OVCAR8 (setting [1]) amounted to 19.5 DSS; in the assay with OVCAR8 (co-cultured fibroblast: WI38), 15.3 DSS; in the assay with OVCAR8 (setting [2]) it was 15.8 DSS; in the assay with KURAMOCHI (setting [1]), 10.5 DSS; in the assay on KURAMOCHI (co-cultured fibroblast: WI38), 15 DSS; with KURAMOCHI (setting [2]), 16.3 DSS.
For `CC(C)C[C@H](NC(=O)[C@H](Cc1ccccc1)NC(=O)c1cnccn1)B(O)O` [Bortezomib], the drug sensitivity score with OVCAR8 (setting [1]) was found to be 17.3 DSS; in the assay on OVCAR8 (co-cultured fibroblast: WI38) it was 27.3 DSS; in the assay on OVCAR8 (setting [2]), 26 DSS; in the assay with KURAMOCHI (setting [1]) it was 11.5 DSS; in the assay on KURAMOCHI (co-cultured fibroblast: WI38) it was 25.6 DSS; with KURAMOCHI (setting [2]), 15.7 DSS.
Consider `CCNCCS(=O)(=O)NC[C@@]1(c2ccccc2)SC(NC(=O)C(C)(C)C)=NN1C(=O)C(C)(C)C` [Litronesib], for which the drug sensitivity score was determined as 27.8 DSS in the assay with OVCAR8 (setting [1]); 28.8 DSS with OVCAR8 (co-cultured fibroblast: WI38); 27 DSS in the assay on OVCAR8 (setting [2]); 19.2 DSS in the assay on KURAMOCHI (setting [1]); 22.8 DSS in the assay with KURAMOCHI (co-cultured fibroblast: WI38); 12.2 DSS with KURAMOCHI (setting [2]).
On to `CC(C)N(C[C@H]1O[C@@H](n2cnc3c(N)ncnc32)[C@H](O)[C@@H]1O)[C@H]1C[C@@H](CCc2nc3cc(C(C)(C)C)ccc3[nH]2)C1` [Pinometostat], for which the drug sensitivity score in the assay with OVCAR8 (setting [1]), in the assay on OVCAR8 (co-cultured fibroblast: WI38), with OVCAR8 (setting [2]), with KURAMOCHI (setting [1]), in the assay on KURAMOCHI (co-cultured fibroblast: WI38) and with KURAMOCHI (setting [2]) was 0 DSS each time.
Consider `CC(C)[C@H](C(=O)Nc1ccc(C(=O)NO)cc1)c1ccccc1` [AR-42], for which the drug sensitivity score was found to be 17.8 DSS in the assay with OVCAR8 (setting [1]); 15.3 DSS in the assay on OVCAR8 (co-cultured fibroblast: WI38); 18.8 DSS in the assay on OVCAR8 (setting [2]); 14 DSS in the assay with KURAMOCHI (setting [1]); 15.8 DSS in the assay with KURAMOCHI (co-cultured fibroblast: WI38); 12.3 DSS in the assay with KURAMOCHI (setting [2]).
Consider `C#Cc1cccc(Nc2ncnc3cc(OCCOC)c(OCCOC)cc23)c1` [Erlotinib], for which the drug sensitivity score turned out to be 3.1 DSS with OVCAR8 (setting [1]); 0 DSS in the assay with OVCAR8 (co-cultured fibroblast: WI38); 5 DSS with OVCAR8 (setting [2]); 1.1 DSS in the assay on KURAMOCHI (setting [1]); 2.6 DSS in the assay with KURAMOCHI (co-cultured fibroblast: WI38); 0.4 DSS with KURAMOCHI (setting [2]).
For the compound `O=C(NC1CCNCC1)c1n[nH]cc1NC(=O)c1c(Cl)cccc1Cl` [AT7519], the drug sensitivity score amounted to 21.6 DSS in the assay on OVCAR8 (setting [1]); 17.5 DSS in the assay on OVCAR8 (co-cultured fibroblast: WI38); 19.9 DSS in the assay on OVCAR8 (setting [2]); 17.3 DSS in the assay with KURAMOCHI (setting [1]); 18.8 DSS in the assay on KURAMOCHI (co-cultured fibroblast: WI38); 19.6 DSS with KURAMOCHI (setting [2]).
As for `Cc1cc(Nc2ncc(Cl)c(Nc3ccccc3S(=O)(=O)C(C)C)n2)c(OC(C)C)cc1C1CCNCC1` [Ceritinib], the drug sensitivity score with OVCAR8 (setting [1]) was 1.8 DSS; with OVCAR8 (co-cultured fibroblast: WI38) it was 0 DSS; with OVCAR8 (setting [2]), 3.7 DSS; in the assay with KURAMOCHI (setting [1]), 1.3 DSS; with KURAMOCHI (co-cultured fibroblast: WI38), 0 DSS; with KURAMOCHI (setting [2]), 2.2 DSS.
Consider `COc1cc2c(Oc3ccc4[nH]c(C)cc4c3F)ncnc2cc1OCCCN1CCCC1` [Cediranib], for which the drug sensitivity score in the assay with OVCAR8 (setting [1]), in the assay on OVCAR8 (co-cultured fibroblast: WI38), with OVCAR8 (setting [2]), with KURAMOCHI (setting [1]), with KURAMOCHI (co-cultured fibroblast: WI38) and in the assay with KURAMOCHI (setting [2]) was 0 DSS each time.
As for `O=C(O)c1ccc(CN2CCC(CN[C@@H]3C[C@H]3c3ccccc3)CC2)cc1`, the drug sensitivity score in the assay with OVCAR8 (setting [1]) turned out to be 0 DSS; in the assay on OVCAR8 (co-cultured fibroblast: WI38), 0 DSS; in the assay on OVCAR8 (setting [2]), 2.2 DSS; in the assay with KURAMOCHI (setting [1]) it was 0.9 DSS; in the assay with KURAMOCHI (co-cultured fibroblast: WI38) it was 0 DSS; in the assay with KURAMOCHI (setting [2]) it was 0 DSS.
On to `C=CC(=O)Nc1cccc(Oc2nc(Nc3ccc(N4CCN(C)CC4)cc3)nc3ccsc23)c1` [Olmutinib], for which the drug sensitivity score came out at 0 DSS in the assay with OVCAR8 (setting [1]); 0 DSS in the assay with OVCAR8 (co-cultured fibroblast: WI38); 0 DSS in the assay on OVCAR8 (setting [2]); 2.1 DSS with KURAMOCHI (setting [1]); 2.7 DSS in the assay with KURAMOCHI (co-cultured fibroblast: WI38); 0 DSS in the assay on KURAMOCHI (setting [2]).
